Reference: article PMC10648875 (Antimicrobial Agents and Chemotherapy, 2023)

Legend:
[1] = tested on: ESBL-producing Enterobacterales; assay: organism not typed; assay type: cell-based; settings: ESBL (N = 521); xeruborbactam and vaborbactam fixed 8 mg/L, all other BLIs 4 mg/L
[2] = tested on: carbapenem-resistant Enterobacterales (subset of 507 isolates); assay: organism not typed; assay type: cell-based; settings: xeruborbactam and vaborbactam fixed 8 mg/L, all other BLIs 4 mg/L
[3] = tested on: ESBL-producing and carbapenem-resistant Enterobacterales (All, N = 1028); assay: organism not typed; assay type: cell-based; settings: All (N = 1028); xeruborbactam and vaborbactam fixed 8 mg/L, all other BLIs 4 mg/L
[4] = tested on: Escherichia coli NCTC 13353 (ECM7514), CTX-M-15; assay: MIC, reference strain; assay type: cell-based; settings: Escherichia coli, NCTC13353; CTX-M-15; BLI at the fixed concentration in brackets; read-out: MIC
Description: (§1) Other BL/BLI combinations were tested at their recommended BLI concentrations. MIC values for the partner antibiotics and BLIs alone were also determined (Table 2; Table S1). All investigational and marketed BLIs enhanced the potency of antibiotics according to their spectrum of inhibition. MIC values against CLSI-approved QC strains were within acceptable ranges for drugs and combinations tested (Table 3).
(§2) Isolates were tested for antimicrobial susceptibility using the broth microdilution methodology per CLSI M07 (2018) guidelines ([40]). JMI Laboratories produced frozen-form 96-well panels with cation-adjusted Mueller-Hinton broth as the testing medium. Current CLSI quality assurance practices were followed when performing the susceptibility tests. MIC values were validated by concurrently testing the following CLSI-recommended ([27]) QC reference strains: E. coli NCTC 13353 (CTX-M-15), Klebsiella pneumoniae ATCC BAA-2814 (KPC-3), Klebsiella pneumoniae ATCC BAA-1705 (KPC-2), and K. pneumoniae ATCC 700603 (SHV-18). The inoculum density during susceptibility testing was monitored by bacterial colony counts. Where applicable, QC ranges for tested reference strains were those approved or published by the CLSI ([27]). Meropenem was purchased from Carbosynth; ceftolozane was synthesized at Acme Bioscience, Palo Alto, CA, USA; all other antibiotics were from Sigma Aldrich. Xeruborbactam was synthesized at Qpex Biopharma, San Diego, CA, USA. Avibactam was purchased from eNovation, Chemicals LLC, Bridgewater, NJ, USA. Vaborbactam was synthesized at The Medicines Company, San Diego, CA. Relebactam, taniborbactam, and relebactam were synthesized at Acme Bioscience.

[5] = tested on: P. aeruginosa BAA-3197 (PA5257), KPC-2; assay: MIC, reference strain; assay type: cell-based; settings: Pseudomonas aeruginosa, BAA3197; KPC-2; BLI at the fixed concentration in brackets; read-out: MIC
[6] = tested on: Klebsiella pneumoniae ATCC 700603 (KPM2881), SHV-18; assay: MIC, reference strain; assay type: cell-based; settings: Klebsiella pneumoniae, ATCC700603; SHV-18; BLI at the fixed concentration in brackets; read-out: MIC
Description: as §1
as §2, with “([27]).” for “([27]). Meropenem was purchased from Carbosynth; ceftolozane was synthesized at Acme Bioscience, Palo Alto, CA, USA; all other antibiotics were from Sigma Aldrich. Xeruborbactam was synthesized at Qpex Biopharma, San Diego, CA, USA. Avibactam was purchased from eNovation, Chemicals LLC, Bridgewater, NJ, USA. Vaborbactam was synthesized at The Medicines Company, San Diego, CA. Relebactam, taniborbactam, and relebactam were synthesized at Acme Bioscience.”

[7] = tested on: K. pneumoniae ATCC BAA-1705 (KPM1123), KPC-2; assay: MIC, reference strain; assay type: cell-based; settings: Klebsiella pneumoniae, ATCCBAA1705; KPC-2; BLI at the fixed concentration in brackets; read-out: MIC
Description: as §1
as §2, with “([27]).” for “([27]). Meropenem was purchased from Carbosynth; ceftolozane was synthesized at Acme Bioscience, Palo Alto, CA, USA; all other antibiotics were from Sigma Aldrich. Xeruborbactam was synthesized at Qpex Biopharma, San Diego, CA, USA. Avibactam was purchased from eNovation, Chemicals LLC, Bridgewater, NJ, USA. Vaborbactam was synthesized at The Medicines Company, San Diego, CA. Relebactam, taniborbactam, and relebactam were synthesized at Acme Bioscience.”

[8] = tested on: E. coli CDC 0069 (EC1106), NDM-1; assay: MIC, reference strain; assay type: cell-based; settings: Escherichia coli, BLI at the fixed concentration in brackets, read-out: MIC
Description: as §1
as §2, with “([27]).” for “([27]). Meropenem was purchased from Carbosynth; ceftolozane was synthesized at Acme Bioscience, Palo Alto, CA, USA; all other antibiotics were from Sigma Aldrich. Xeruborbactam was synthesized at Qpex Biopharma, San Diego, CA, USA. Avibactam was purchased from eNovation, Chemicals LLC, Bridgewater, NJ, USA. Vaborbactam was synthesized at The Medicines Company, San Diego, CA. Relebactam, taniborbactam, and relebactam were synthesized at Acme Bioscience.”

[9] = tested on: K. pneumoniae ATCC BAA-2814 (KP1074), KPC-3; assay: MIC, reference strain; assay type: cell-based; settings: Klebsiella pneumoniae, ATCCBAA2814; KPC-3; BLI at the fixed concentration in brackets; read-out: MIC
Description: as §1
as §2, with “([27]).” for “([27]). Meropenem was purchased from Carbosynth; ceftolozane was synthesized at Acme Bioscience, Palo Alto, CA, USA; all other antibiotics were from Sigma Aldrich. Xeruborbactam was synthesized at Qpex Biopharma, San Diego, CA, USA. Avibactam was purchased from eNovation, Chemicals LLC, Bridgewater, NJ, USA. Vaborbactam was synthesized at The Medicines Company, San Diego, CA. Relebactam, taniborbactam, and relebactam were synthesized at Acme Bioscience.”

[10] = tested on: K. pneumoniae CDC 0135 (KP1291), VIM-1; assay: MIC, reference strain; assay type: cell-based; settings: Klebsiella pneumoniae, BLI at the fixed concentration in brackets, read-out: MIC
Description: as §1
as §2, with “([27]).” for “([27]). Meropenem was purchased from Carbosynth; ceftolozane was synthesized at Acme Bioscience, Palo Alto, CA, USA; all other antibiotics were from Sigma Aldrich. Xeruborbactam was synthesized at Qpex Biopharma, San Diego, CA, USA. Avibactam was purchased from eNovation, Chemicals LLC, Bridgewater, NJ, USA. Vaborbactam was synthesized at The Medicines Company, San Diego, CA. Relebactam, taniborbactam, and relebactam were synthesized at Acme Bioscience.”

NDM-1 = NDM-1 (Klebsiella pneumoniae, UniProt C7C422); assay: biochemical
Description: (§3) The majority of purified β-lactamase enzymes used in the study were either expressed and purified internally ([35]) or obtained from Emerald Biostructures (Bainbridge Island, WA, USA). L1 enzyme was purified as described in reference ([36]).
(§4) Enzymes were mixed with BLIs at concentrations varying from 160 to 0.0027 µM in 50-mM Na-phosphate pH7.0, 0.1-mg/mL bovide serum albumin (BSA) (buffer A; 20-µM ZnCl2 was also added for all metalloenzymes) and incubated for 10 minutes at 37°C. Nitrocefin (50 µM) (10 µM for SHV-12) or 100 µM of imipenem (prewarmed at 37°C for 10 minutes) was added, and substrate cleavage profiles were recorded at 37°C at 490 nm every 10 seconds for 10 minutes or at 294 nm every 30 seconds for 1 hour for nitrocefin and imipenem, respectively. […] Ki app values (Ki for metalloenzymes) were calculated by the method of Waley ([37]).

CTX-M-14 = CTX-M-14 (Escherichia coli, UniProt Q9L5C7); assay: Ki app of β-lactamase inhibition, purified enzyme; assay type: biochemical; settings: 10-minute preincubation; nitrocefin substrate
Description: as §3, §4

SHV-12 = SHV-12 (Klebsiella pneumoniae, UniProt P0AD64, E235K/G234S/L31Q); assay: Ki app of β-lactamase inhibition, purified enzyme; assay type: biochemical
Description: as §3, §4

P99 = P99 (Enterobacter cloacae, UniProt P05364); assay: Ki app of β-lactamase inhibition, purified enzyme; assay type: biochemical; settings: 10-minute preincubation; nitrocefin substrate; read-out: Ki app
Description: as §3, §4

CTX-M-15 = CTX-M-15 (Escherichia coli, UniProt Q9EXV5); assay: Ki app of β-lactamase inhibition, purified enzyme; assay type: biochemical; settings: 10-minute preincubation; nitrocefin substrate
Description: as §3, §4

IMP-1 = IMP-1 (Serratia marcescens, UniProt P52699); assay: Ki of metallo-β-lactamase inhibition, purified enzyme; assay type: biochemical
Description: as §3, §4

VIM-1 = VIM-1 (Pseudomonas aeruginosa, UniProt A0A0F7KYQ8); assay: as above; assay type: biochemical; settings: 10-minute preincubation; nitrocefin substrate
Description: as §3, §4

OXA-48 = OXA-48 (Klebsiella pneumoniae, UniProt Q6XEC0); assay: Ki app of β-lactamase inhibition, purified enzyme; assay type: biochemical, Enterobacterales; settings: 10-minute preincubation; nitrocefin substrate
Description: as §3, §4

OXA-23 = OXA-23 (Acinetobacter baumannii, UniProt Q9L4P2); assay: Ki app of β-lactamase inhibition, purified enzyme; assay type: biochemical; settings: 10-minute preincubation; nitrocefin substrate
Description: as §3, §4

KPC-2 = KPC-2 (Klebsiella pneumoniae, UniProt Q9F663); assay: Ki app of β-lactamase inhibition, purified enzyme; assay type: biochemical; settings: 10-minute preincubation; nitrocefin substrate
Description: as §3, §4

Chain of IMP-1 (P52699 19-246 limits assumed): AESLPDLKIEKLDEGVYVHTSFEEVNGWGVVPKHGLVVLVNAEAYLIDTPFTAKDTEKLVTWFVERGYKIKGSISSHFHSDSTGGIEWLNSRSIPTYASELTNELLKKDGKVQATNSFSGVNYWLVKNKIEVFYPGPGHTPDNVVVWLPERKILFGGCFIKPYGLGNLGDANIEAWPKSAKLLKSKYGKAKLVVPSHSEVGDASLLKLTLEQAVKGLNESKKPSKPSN
Chain of P99 (P05364 21-381): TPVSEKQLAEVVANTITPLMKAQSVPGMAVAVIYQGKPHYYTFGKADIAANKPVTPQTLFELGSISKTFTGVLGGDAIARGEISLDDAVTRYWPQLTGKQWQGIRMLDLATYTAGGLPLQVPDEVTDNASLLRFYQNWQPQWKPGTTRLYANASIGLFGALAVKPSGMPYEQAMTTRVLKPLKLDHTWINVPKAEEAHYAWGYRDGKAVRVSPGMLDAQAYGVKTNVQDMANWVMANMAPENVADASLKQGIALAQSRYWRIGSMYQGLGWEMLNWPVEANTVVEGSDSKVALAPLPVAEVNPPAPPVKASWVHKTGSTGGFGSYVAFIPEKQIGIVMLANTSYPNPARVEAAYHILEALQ
Chain of CTX-M-15 (Q9EXV5 entry or part of it): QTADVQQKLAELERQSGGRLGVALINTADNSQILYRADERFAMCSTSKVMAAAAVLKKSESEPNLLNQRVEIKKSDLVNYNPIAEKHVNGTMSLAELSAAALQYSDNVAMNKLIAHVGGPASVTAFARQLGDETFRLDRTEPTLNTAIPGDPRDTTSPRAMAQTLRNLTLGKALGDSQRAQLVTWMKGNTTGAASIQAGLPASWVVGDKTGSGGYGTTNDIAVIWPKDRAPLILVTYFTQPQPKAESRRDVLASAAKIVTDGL
Chain of NDM-1 (C7C422 29-270 limits assumed): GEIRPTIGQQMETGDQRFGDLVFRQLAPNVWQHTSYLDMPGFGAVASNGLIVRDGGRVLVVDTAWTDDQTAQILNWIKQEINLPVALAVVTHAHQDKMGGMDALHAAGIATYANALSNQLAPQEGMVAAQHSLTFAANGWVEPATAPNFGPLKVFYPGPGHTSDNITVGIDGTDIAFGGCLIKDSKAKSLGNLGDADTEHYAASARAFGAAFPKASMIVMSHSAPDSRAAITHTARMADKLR
Chain of CTX-M-14 (Q9L5C7 entry or part of it): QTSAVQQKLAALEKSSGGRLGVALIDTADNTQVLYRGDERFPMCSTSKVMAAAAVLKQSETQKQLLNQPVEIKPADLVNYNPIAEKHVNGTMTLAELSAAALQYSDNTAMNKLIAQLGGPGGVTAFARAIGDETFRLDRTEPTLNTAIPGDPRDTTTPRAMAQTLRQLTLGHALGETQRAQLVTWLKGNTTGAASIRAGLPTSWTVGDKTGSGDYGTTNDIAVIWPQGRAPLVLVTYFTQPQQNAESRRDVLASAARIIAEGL
Chain of OXA-23 (Q9L4P2 18-273): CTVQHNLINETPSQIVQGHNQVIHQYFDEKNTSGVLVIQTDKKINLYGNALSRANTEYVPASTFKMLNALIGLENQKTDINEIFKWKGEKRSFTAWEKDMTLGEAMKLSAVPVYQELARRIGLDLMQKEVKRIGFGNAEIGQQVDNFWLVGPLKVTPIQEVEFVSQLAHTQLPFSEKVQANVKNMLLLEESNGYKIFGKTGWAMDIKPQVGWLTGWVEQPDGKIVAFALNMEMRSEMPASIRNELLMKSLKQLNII
Chain of KPC-2 (Q9F663 25-293 limits assumed): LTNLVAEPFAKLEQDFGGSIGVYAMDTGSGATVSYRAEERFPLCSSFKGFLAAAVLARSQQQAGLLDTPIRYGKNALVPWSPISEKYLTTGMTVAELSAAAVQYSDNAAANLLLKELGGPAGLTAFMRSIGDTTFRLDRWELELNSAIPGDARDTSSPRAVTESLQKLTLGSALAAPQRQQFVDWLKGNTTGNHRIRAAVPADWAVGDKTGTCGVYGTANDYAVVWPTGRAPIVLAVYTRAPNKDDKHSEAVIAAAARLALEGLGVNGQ
Chain of OXA-48 (Q6XEC0 23-265 limits assumed): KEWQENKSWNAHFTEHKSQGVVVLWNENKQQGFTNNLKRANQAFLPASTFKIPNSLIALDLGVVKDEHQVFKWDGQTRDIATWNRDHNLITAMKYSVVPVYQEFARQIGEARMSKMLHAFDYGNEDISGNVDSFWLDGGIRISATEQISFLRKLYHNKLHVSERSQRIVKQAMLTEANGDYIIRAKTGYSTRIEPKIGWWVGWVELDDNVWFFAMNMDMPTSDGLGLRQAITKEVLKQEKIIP
Chain of SHV-12 (P0AD64 22-286 L31Q/G234S/E235K): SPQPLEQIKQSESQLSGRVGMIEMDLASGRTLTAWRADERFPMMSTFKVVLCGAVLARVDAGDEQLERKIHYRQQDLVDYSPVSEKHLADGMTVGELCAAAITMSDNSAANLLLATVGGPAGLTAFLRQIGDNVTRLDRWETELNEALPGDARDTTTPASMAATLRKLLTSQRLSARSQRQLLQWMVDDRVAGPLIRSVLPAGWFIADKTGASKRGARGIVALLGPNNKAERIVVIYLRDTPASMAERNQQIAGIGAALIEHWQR

Work on CO/N=C(\C(=O)N[C@@H]1C(=O)N2C(C(=O)O)=C(CSc3nc(=O)c(O)nn3C)CS[C@H]12)c1csc(N)n1 [CRO] yielded an MIC50 [1] of over 32 µg/mL, an MIC90 [1] of over 32 µg/mL and an MIC50 ([2]; CRE (N = 507)) of over 32 µg/mL. The MIC90 ([2]; CRE (N = 507)) was over 32 µg/mL, the MIC50 ([2]; KPC (N = 193)) was over 32 µg/mL and the MIC90 ([2]; KPC (N = 193)) was over 32 µg/mL. The MIC50 ([2]; MBL (N = 168)) was over 32 µg/mL, the MIC90 ([2]; MBL (N = 168)) was over 32 µg/mL and the MIC50 ([2]; Non-CP CRE (N = 50)) was over 32 µg/mL. The MIC90 ([2]; Non-CP CRE (N = 50)) was over 32 µg/mL, the MIC50 ([2]; OXA-48-like (N = 96)) was over 32 µg/mL and the MIC90 ([2]; OXA-48-like (N = 96)) was over 32 µg/mL. For the same molecule, the MIC50 [3] was over 32 µg/mL and the MIC90 [3] was over 32 µg/mL.

CC(C)(O/N=C(\C(=O)N[C@@H]1C(=O)N2C(C(=O)[O-])=C(C[n+]3ccccc3)CS[C@H]12)c1csc(N)n1)C(=O)O [CAZ, ceftazidime] was tested, and the MIC [4] was 64 µg/mL, the MIC [5] was over 64 µg/mL and the MIC [6] was 16 µg/mL. For the same molecule, the MIC [7] was 64 µg/mL, the MIC [8] was over 64 µg/mL and the MIC [9] was over 64 µg/mL. The MIC [10] was over 64 µg/mL.

O=C(NC1CCNCC1)[C@@H]1CC[C@@H]2CN1C(=O)N2OS(=O)(=O)O [Relebactam, relebactam] showed an MIC [4] of over 64 µg/mL, an MIC [5] of over 64 µg/mL and a Ki (NDM-1) of over 160000 nM. For the same molecule, the Ki (CTX-M-14) was 10 ± 3 nM, the Ki (SHV-12) was 36 ± 6 nM and the Ki (P99) was 14 ± 2 nM. The Ki (CTX-M-15) was 24 ± 1 nM, the MIC [6] was over 64 µg/mL and the MIC [7] was over 64 µg/mL. For the same molecule, the MIC [8] was over 64 µg/mL, the MIC [9] was over 64 µg/mL and the MIC [10] was over 64 µg/mL. It also gave a Ki (IMP-1) of over 160000 nM and a Ki (VIM-1) of over 160000 nM.

CC1=C[C@@H]2CN(C(=O)N2OS(=O)(=O)O)[C@@H]1C(N)=O [Durlobactam, durlobactam] was tested, and the Ki (NDM-1) was over 160000 nM, the Ki (OXA-48) was 0.72 ± 0.27 nM and the Ki (CTX-M-14) was 0.37 ± 0.16 nM. The Ki (OXA-23) was 94 ± 32 nM, the Ki (KPC-2) was 1.7 ± 0.4 nM and the Ki (P99) was 0.17 ± 0.08 nM. It also gave a Ki (CTX-M-15) of 0.21 ± 0.12 nM, a Ki (IMP-1) of over 160000 nM and a Ki (VIM-1) of over 160000 nM.
